Assay results reported in patent US11344548B2, “Analogs of 3,5-dihydroxypentanoate for bone formation” (KAOHSIUNG MEDICAL UNIVERSITY, priority 2015, dated 2022).
Read-outs that look alike come from different tables or passages of the source. Blank lines part the entries; values can stand above or below the compound they belong to.

How the values were obtained:
D1 cells [1] = assay: Cytotoxicity MTT assay on D1 cells; type: cell-based, rat; conditions: for IC50: Rattus norvegicus, 72 h, MTT, 3 days
Description: D1 cell is more sensitive than hADSC cell by drug treatment.
The cytotoxicity of compounds 4˜11 was analyzed using MTT assay. D1 cells were cultured to an initial culture density of 5×10^3 cells per well in a bone medium. The bone medium was a DMEM medium containing 10% Fetal bovine serum (FBS), 100 U/mL penicillin, 100 μg/mL streptomycin, […] ascorbic acid, 1% non-essential amino acids (NEAA) and 1.5 g sodium bicarbonate. After the cells were seeded, the bone medium with compounds 4˜11 respectively was set as the experimental group, the bone medium without compound was set as the blank test group, and all were cultured at 37° C. for 3 days. The MTT agent was added to the culture medium for 3 hours, then the medium was removed and the cells were washed with PBS, and 100 μL of DMSO was added to the wells to promote the dissolution of formazan. The DMSO solution containing formazan was measured using UV spectrophotometer at 595 nm wavelength, and the survival of cells was judged by the value of absorbance.

HMG-CoA reductase = target: T1, HMG-CoA reductase (Homo sapiens, UniProt P04035); assay: HMG-CoA reductase inhibition; type: biochemical; conditions: for effective inhibitory concentration compared with simvastatin: HMG-CoA reductase; for IC50: HMG-CoA reductase 17.4 nM final, absorbance 340 nm
T1 sequence (P04035 426-888 limits assumed): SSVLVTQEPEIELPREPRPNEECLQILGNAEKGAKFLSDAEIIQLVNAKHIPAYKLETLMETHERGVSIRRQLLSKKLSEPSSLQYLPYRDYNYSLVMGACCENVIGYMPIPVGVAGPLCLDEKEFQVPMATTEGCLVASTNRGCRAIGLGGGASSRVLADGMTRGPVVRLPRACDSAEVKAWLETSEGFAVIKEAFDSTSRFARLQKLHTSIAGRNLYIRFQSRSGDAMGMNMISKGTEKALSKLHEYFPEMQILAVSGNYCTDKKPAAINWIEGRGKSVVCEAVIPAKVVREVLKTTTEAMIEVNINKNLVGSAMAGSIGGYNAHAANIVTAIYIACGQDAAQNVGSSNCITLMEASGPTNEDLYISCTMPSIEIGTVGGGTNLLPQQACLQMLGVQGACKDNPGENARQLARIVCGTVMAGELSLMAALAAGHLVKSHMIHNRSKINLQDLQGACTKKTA
Description: HMG-CoA Reductase Inhibition
A 0.1 M phosphate buffer containing 100 μM […], 330 μM NADPH, 2% DMSO and 1 mg/mL BSA was firstly prepared. Compounds 1 and 4˜11 were added dissolved in phosphate buffer at various concentrations, then added HMG-CoA reductase (the final concentration is 17.4 nM) and mixed for 5 minutes. The absorbance of the solution was measured at 340 nm. The IC50 values were analyzed via nonlinear least-squares using Sigma 10 to determine the HMG-CoA reductase inhibition of compounds.

D1 cells [2] = type: cell-based
Description: (§1) The D1 cells, purchased from American Type Culture Collection, were plated in 48-well plates at a density of 3×10^4 cells/well. Once confluence was obtained, the cells were cultured in bone medium (BM, prepared with DMEM, 10% FBS, 100 U/mL penicillin, 100 μg/mL streptomycin, […] ascorbic acid, 1% NEAA, 1.5 g sodium bicarbonate) in the presence of compound 1. After 3 days, BM was replaced with an osteogenesis induction medium (OIM prepared with BM, 10^−2 M β-glycerophosphate and 10^−7 M dexamethasone). […] The medium was changed every 2 days. For the quantitative value of mineralization, the cells were washed with PBS triplex and fixed with 10% formalin for 30 minutes at room temperature. Thereafter, the cells were washed with deionized water triplex, and then stained with Alizarin Red S solution ([…], 80 mM, pH 4) for 10 minutes at room temperature. The cells were washed with deionized water triplex and dried overnight at room temperature. The Alizarin Red S was released from the cell matrix by being mixed with 10% acetic acid(aq) for 30 minutes. The concentration of Alizarin Red S was determined by measuring the absorbance at 415 nm.
The abilities of compounds 4˜11 to induce cell mineralization were evaluated followed the same method above, only remove dexamethasone from the recipe of osteogenesis induction medium.

zebrafish [3] = assay: Bone-targeting of test compounds in zebrafish; type: in vivo; conditions: living zebrafish, 3.2 μM, fluorescence microscope, FIG. 9(a), 9(b)
Description: Calcein, which is a known staining dye for the mineral in animals, was used as a positive control group.
The AB strain of wild-type zebrafish was used for this study. Embryos were collected after natural spawning, staged according to standard criteria, and raised synchronously at 28.5° C. in Hank's buffer (13.7 mM NaCl, 540 M KCl, 25 μM Na2HPO4, 44 μM KH2PO4, 300 μM CaCl2, 100 μM MgSO4, 420 μM NaHCO3, pH 7.4). Zebrafish larvae at 2 dpf were exposed to test compounds (3.2 μM) for 3 days in a 24-well plate. At 7 dpf, the fish were anesthetized using tricaine-methanesulfonate (MS 222) and mounted on depression glass slides with methyl-cellulose (3%), and the images of the zebrafish were acquired using a Leica DM-6000 CS fluorescence microscope (Leica Instruments Inc., Wetzlar, Germany). All of the images were acquired using a SPOT Xplorer Digital camera (Diagnostic Instruments, Inc., Sterling Heights, Mich., USA). Each image was taken at 60-sec.

[4] = system: human adipose stem cells (hADSC); assay: Cytotoxicity MTS assay on human adipose stem cells
Description: Statins are known agents that induced stem cells to be osteogenesis.
In a 96-well plate, human adipose stem cells (hADSC) were cultured to an initial culture density of 6×10^3 cells per well in K medium (Keratinocyte-SFM, GIBCO-Invitrogen Corporation). […] The MTS agent was added to the culture medium for 3 hours, then the medium was removed and the cells were washed with PBS (phosphate buffered saline), and 100 μL of DMSO (dimethyl sulfoxide) was added to the wells to promote the dissolution of formazan. The DMSO solution containing formazan was measured using UV spectrophotometer at 490 nm wavelength, and the survival of cells was judged by the value of absorbance.

zebrafish [5] = assay: Bone formation induced by test compounds in zebrafish (calcein staining); type: in vivo; conditions: zebrafish larvae, 0.32 μM, calcein stain, FIG. 9(c)
Description: The non-oligopeptide derivative 7 which had the most outstanding overall performance was selected from the above experiments. In the study for increasing the bone mass of zebrafish, when 0.1 or 1 μM of compound 7 were treated, both can promote bone formation in the zebrafish, and the increase range was between 30% and 50% compared with the non-administration group.
Zebrafish larvae at 2 dpf were treated with test compounds (0.32 μM) for 6 days in a 24-well plate. At 7 dpf, the fish were transferred to 6-cm dishes (8 fish/dish) for bone staining using calcein solution. The calcein solution was prepared at 0.2% by dissolving 2 g of calcein powder (Sigma Chemical, St. Louis, Mo.) in 1 liter of deionized water. The immersion time was 10 minutes at 7 dpf. After the immersion, the embryos were rinsed a number of times in fresh water, and then allowed to stand for 10 mins to allow the excess stain diffusion from the larvae tissue. The embryos were then euthanized in tricaine-methanesulfonate (MS 222) and mounted on depression glass slides with methyl-cellulose (3%). […] Each image was taken at 200 mini-seconds, then the fluorescence of the calcein stain images was calculated using NIH Image J (NIH open software with Macbiophotonics plugins). […]

zebrafish [6] = conditions: reported by Fleming; cited from earlier work
[7] = Combination with HAP monitored by fluorescent microscope; type: physicochemical; conditions: FIG. 6
From the text: If compound 1-F is combined with HAP, it can be monitored using a fluorescent microscope.

D1 cells [8] = assay: Induction of mineralization (Alizarin Red S), FIG. 7; type: cell-based, rat
Description: Following the tests above, the ability of inducing mineralization of the compounds to D1 cells was tested.
as §1

Solubility comparison = type: physicochemical; conditions: compared with simvastatin

effective inhibitory concentration compared with simvastatin (HMG-CoA reductase): 500 fold | IC50 (HMG-CoA reductase): > 30 µM
SMILES: CCC(C)(C)C(=O)O[C@H]1C[C@@H](C)C=C2C=C[C@H](C)[C@H](CC[C@@H](O)C[C@@H](O)CC(=O)NCc3ccccn3)[C@H]21 [Compound 9]
IC50 (D1 cells [1]): 97.3 ± 7.9 µM

IC50 (HMG-CoA reductase): 21.6 µM
SMILES: CCCNC(=O)C[C@H](O)C[C@H](O)CC[C@@H]1[C@@H]2C(=C[C@H](C)C[C@@H]2OC(=O)C(C)(C)CC)C=C[C@@H]1C [Compound 11]
IC50 (D1 cells [1]): 94.1 ± 10.6 µM

SMILES: CCC(C)(C)C(=O)O[C@H]1C[C@@H](C)C=C2C=C[C@H](C)[C@H](CC[C@@H](O)C[C@@H](O)CC(=O)NCCO)[C@H]21 [Compound 5]
IC50 (D1 cells [1]): 117 ± 8.07 µM | IC50 (HMG-CoA reductase): 1.02 ± 0.0509 µM | induction of cell mineralization (D1 cells [2]; 1 μM, Day 9, FIG. 8(a)): clearly induced cell mineralization | induction of cell mineralization (D1 cells [2]; 1 μM, Day 11, FIG. 8(b)): excellent ability to induce cell mineralization

SMILES: CCC(C)(C)C(=O)O[C@H]1C[C@@H](C)C=C2C=C[C@H](C)[C@H](CC[C@@H](O)C[C@@H](O)CC(=O)NCCCO)[C@H]21 [Compound 6]
IC50 (D1 cells [1]): 161 ± 3.76 µM | IC50 (HMG-CoA reductase): 1.13 ± 0.0895 µM | induction of cell mineralization (D1 cells [2]; 1 μM, Day 11, FIG. 8(b)): excellent ability to induce cell mineralization

SMILES: O=C(O)CN(CC(=O)O)Cc1cc2c(cc1O)Oc1cc(O)c(CN(CC(=O)O)CC(=O)O)cc1C21OC(=O)c2ccccc21 [Calcein, reference compound]
bone-targeting (fluorescence on the bones) (zebrafish [3]): fluorescent staining on the bone can be observed

SMILES: CCC(C)(C)C(=O)O[C@H]1C[C@@H](C)C=C2C=C[C@H](C)[C@H](CC[C@@H](O)C[C@@H](O)CC(=O)O)[C@H]21 [Compound 4, simvastatin acid, reference compound]
IC50 (D1 cells [1]): 29.4 ± 1.02 µM | IC50 (HMG-CoA reductase): 0.263 ± 0.0834 µM | induction of cell mineralization (D1 cells [2]; 4 μM, FIG. 8(c)): can only induce mineralization effectively under a concentration of 4 μM

SMILES: CCC(C)(C)C(=O)O[C@H]1C[C@@H](C)C=C2C=C[C@H](C)[C@H](CC[C@@H]3C[C@@H](O)CC(=O)O3)[C@H]21 [Simvastatin, (1S,3R,7S,8S,8aR)-8-{2-[(2R,4R)-4-hydroxy-6-oxotetrahydro-2H-pyran-2-yl]ethyl}-3,7-dimethyl-1,2,3,7,8,8a-hexahydronaphthalen-1-yl2,2-dimethylbutanoate, reference compound]
IC50 ([4]; Homo sapiens, 72 h): 3.25 ± 0.31 µM | IC50 (D1 cells [1]): 3.25 ± 0.31 µM | promotion of bone formation compared with the non-administration group (control) (zebrafish [5]): did not promote bone formation | bone growth of zebrafish (zebrafish [6]): does not benefit in the bone growth of zebrafish

SMILES: CCC(C)(C)C(=O)O[C@H]1C[C@@H](C)C=C2C=C[C@H](C)[C@H](CC[C@@H](O)C[C@@H](O)CC(=O)N[C@@H](CCCCNC(=O)[C@H](CC(=O)O)NC(=O)[C@H](CC(=O)O)NC(=O)[C@H](CC(=O)O)NC(=O)[C@H](CC(=O)O)NC(=O)[C@H](CC(=O)O)NC(=O)[C@H](CC(=O)O)NC(=O)[C@H](CCCCNC(=S)Nc3ccc4c(c3)C(=O)OC43c4ccc(O)cc4Oc4cc(O)ccc43)NC(=O)OCCOCCOCCOCCOCCOCCOCCOCCOCCOCCOCCOC)C(=O)NCC(=O)O)[C@H]21 [Compound 1-F]
IC50 compared with simvastatin ([4]; cytotoxicity, hADSC): 300 fold | combination with HAP [7]: combines on the surface of HAP | effective inhibitory concentration compared with simvastatin (HMG-CoA reductase): 500 fold | promotion of bone formation compared with the non-administration group (control) (zebrafish [5]): up to 50% | induction of mineralization (D1 cells [8]; 15 μM): can induce mineralization of D1 cells | induction of mineralization (D1 cells [8]; over 20 μM): can induce mineralization of D1 cells | bone-targeting (fluorescence on the bones) (zebrafish [3]): targets the bones successfully

IC50 (HMG-CoA reductase): 26.6 µM
SMILES: C=CCNC(=O)C[C@H](O)C[C@H](O)CC[C@@H]1[C@@H]2C(=C[C@H](C)C[C@@H]2OC(=O)C(C)(C)CC)C=C[C@@H]1C [Compound 10]
IC50 (D1 cells [1]): 92.2 ± 2.1 µM

SMILES: CCC(C)(C)C(=O)O[C@H]1C[C@@H](C)C=C2C=C[C@H](C)[C@H](CC[C@@H](O)C[C@@H](O)CC(=O)NCCOCCO)[C@H]21 [Compound 7]
solubility (Solubility comparison): higher than simvastatin | IC50 compared with simvastatin (D1 cells [1]): 83 fold | IC50 (D1 cells [1]): 269.1 ± 1.04 µM | IC50 (HMG-CoA reductase): 0.171 ± 0.0092 µM | induction of cell mineralization (D1 cells [2]; 1 μM, Day 9, FIG. 8(a)): clearly induced cell mineralization | induction of cell mineralization (D1 cells [2]; 1 μM, Day 11, FIG. 8(b)): excellent ability to induce cell mineralization | induction of cell mineralization (D1 cells [2]; 4 μM, FIG. 8(c)): obvious ability to induce cell mineralization

IC50 (HMG-CoA reductase): 0.95 ± 0.0801 µM
SMILES: CCC(C)(C)C(=O)O[C@H]1C[C@@H](C)C=C2C=C[C@H](C)[C@H](CC[C@@H](O)C[C@@H](O)CC(=O)NN)[C@H]21 [Compound 8]
IC50 (D1 cells [1]): 106 ± 3.3 µM
